Test results from ChEMBL document CHEMBL3864164, “II. Discovery of a novel series of CXCR3 antagonists with a beta amino acid core” (Bioorg Med Chem Lett, 2016).
In brackets after ≈: the same amount, converted by molar mass.

Columns and labels:
[1] = Solubility of the compound at pH 1.1 to 7.4; assay type: physicochemical; settings: buffer
[2] = Drug degradation in solid phase after few months; assay type: physicochemical; settings: read-out: Drug degradation
[3] = Absolute oral bioavailability in Balb/c mouse at 10 mg/kg; assay type: ADME, organism-based; settings: in vivo

solubility [1] [µM] | degraded [2] [%] | bioavailability [3] [%] | Structure (SMILES)
3000 (≈ 1580 µg/mL) | 5 to 7 | 14 | Cc1cc(CN(CC2CCCC2)[C@@H](CC(=O)O)c2ccc(Cl)cc2)ccc1OCCN1C(=O)CCC1=O
3000 (≈ 1580 µg/mL) | 5 to 7 |  | Cc1cc(CN(CC2CCCC2)C(CC(=O)O)c2ccc(Cl)cc2)ccc1OCCN1C(=O)CCC1=O (configuration not stated)
3000 | 5 to 7 | 64 | Cl.O=C(O)C[C@@H](c1ccc(Cl)c(Cl)c1)N(Cc1ccc(OCCN2C(=O)CCC2=O)c(F)c1)CC1CC1
3000 (≈ 1500 µg/mL) | 5 to 7 |  | Cc1cc(CN(CC2CC2)C(CC(=O)O)c2ccc(Cl)cc2)ccc1OCCN1C(=O)CCC1=O (configuration not stated)
3000 | 5 to 7 |  | Cc1cc(CN(CC2CCCC2)[C@@H](CC(=O)O)c2ccc(Cl)c(F)c2)ccc1OCCN1C(=O)CCC1=O.Cl
3000 (≈ 1680 µg/mL) | 5 to 7 |  | COc1cc(CN(CC2CCCC2)[C@@H](CC(=O)O)c2ccc(Cl)c(F)c2)ccc1OCCN1C(=O)CCC1=O
3000 (≈ 1610 µg/mL) | 5 to 7 |  | Cc1cc(CN(CC(C)C)C(CC(=O)O)c2ccc(Cl)c(Cl)c2)ccc1OCCN1C(=O)CCC1=O (configuration not stated)
3000 (≈ 1620 µg/mL) | 5 to 7 |  | CCc1cc(CN(CC2CCCC2)[C@@H](CC(=O)O)c2ccc(Cl)cc2)ccc1OCCN1C(=O)CCC1=O
3000 (≈ 1500 µg/mL) | 5 to 7 |  | Cc1cc(CN(CC2CC2)[C@@H](CC(=O)O)c2ccc(Cl)cc2)ccc1OCCN1C(=O)CCC1=O
3000 (≈ 1460 µg/mL) | 5 to 7 |  | CCCN(Cc1ccc(OCCN2C(=O)CCC2=O)c(C)c1)[C@H](CC(=O)O)c1ccc(Cl)cc1
3000 (≈ 1460 µg/mL) | 5 to 7 |  | CCCN(Cc1ccc(OCCN2C(=O)CCC2=O)c(C)c1)C(CC(=O)O)c1ccc(Cl)cc1 (configuration not stated)
3000 (≈ 1620 µg/mL) | 5 to 7 |  | Cc1cc(CN(CC2CCCCC2)C(CC(=O)O)c2ccc(Cl)cc2)ccc1OCCN1C(=O)CCC1=O (configuration not stated)
3000 | 5 to 7 | 5.4 | COc1cc(CN(CC2CC2)[C@@H](CC(=O)O)c2ccc(Cl)c(F)c2)ccc1OCCN1C(=O)CCC1=O.Cl
3000 (≈ 1420 µg/mL) | 5 to 7 |  | CCN(Cc1ccc(OCCN2C(=O)CCC2=O)c(C)c1)C(CC(=O)O)c1ccc(Cl)cc1 (configuration not stated)
3000 | 5 to 7 | 35 | Cl.O=C(O)C[C@@H](c1ccc(Cl)c(F)c1)N(Cc1ccc(OCCN2C(=O)CCC2=O)c(Cl)c1)CC1CC1
3000 (≈ 1460 µg/mL) | 5 to 7 |  | CCCN(Cc1ccc(OCCN2C(=O)CCC2=O)c(C)c1)[C@@H](CC(=O)O)c1ccc(Cl)cc1
3000 (≈ 1560 µg/mL) | 5 to 7 |  | Cc1cc(CN(CC(C)C)C(CC(=O)O)c2ccc(Cl)c(F)c2)ccc1OCCN1C(=O)CCC1=O (configuration not stated)
3000 (≈ 1500 µg/mL) | 5 to 7 |  | Cc1cc(CN(C2CCC2)C(CC(=O)O)c2ccc(Cl)cc2)ccc1OCCN1C(=O)CCC1=O (configuration not stated)
3000 (≈ 1610 µg/mL) | 5 to 7 |  | COc1cc(CN(CC(C)C)C(CC(=O)O)c2ccc(Cl)c(F)c2)ccc1OCCN1C(=O)CCC1=O (configuration not stated)
3000 | 5 to 7 |  | Cc1cc(CN(CC(C)C)[C@@H](CC(=O)O)c2ccc(Cl)c(F)c2)ccc1OCCN1C(=O)CCC1=O.Cl
3000 (≈ 1610 µg/mL) | 5 to 7 |  | Cc1cc(CN(CC(C)C)C(CC(=O)O)c2ccc(Cl)cc2Cl)ccc1OCCN1C(=O)CCC1=O (configuration not stated)
3000 (≈ 1650 µg/mL) | 5 to 7 |  | COc1cc(CN(CC(C)C)C(CC(=O)O)c2ccc(Cl)c(Cl)c2)ccc1OCCN1C(=O)CCC1=O (configuration not stated)
3000 | 5 to 7 | 70 | Cl.O=C(O)C[C@@H](c1ccc(Cl)c(F)c1)N(Cc1ccc(OCCN2C(=O)CCC2=O)c(F)c1)CC1CC1

Second part, the compound before the results:

Structure (SMILES) | solubility [1] [µM] | degraded [2] [%] | bioavailability [3] [%]
Cc1cc(CN(C2CCC2)C(CC(=O)O)c2ccc(Cl)cc2)ccc1OCCn1c(=O)ccn(C)c1=O (configuration not stated) | 3000 (≈ 1580 µg/mL) | 5 to 7 | 
COc1cc(CN(CC2CC2)C(CC(=O)O)c2ccc(Cl)cc2)ccc1OCCn1c(=O)ccn(C)c1=O (configuration not stated) | 3000 (≈ 1630 µg/mL) | 5 to 7 | 
CCCN(Cc1ccc(OCCN2C(=O)CCC2=O)c(C)c1)C(CC(=O)O)c1ccc(Cl)s1.Cl (configuration not stated) | 3000 | 5 to 7 | 
Cc1cc(CN(CC(C)C)C(CC(=O)O)c2ccc3c(c2)CCO3)ccc1OCCN1C(=O)CCC1=O (configuration not stated) | 3000 (≈ 1530 µg/mL) | 5 to 7 | 
CCCN(Cc1ccc(OCCn2c(=O)ccn(C)c2=O)c(OC)c1)C(CC(=O)O)c1ccc(Cl)cc1 (configuration not stated) | 3000 (≈ 1590 µg/mL) | 5 to 7 | 
CCCN(Cc1ccc(OCCN2C(=O)CCC2=O)c(C)c1)C1c2ccc(Cl)cc2CC1C(=O)O (configuration not stated) | 3000 (≈ 1500 µg/mL) | 5 to 7 | 
COc1cc(CN(CC(C)C)C(CC(=O)O)c2ccc3c(c2)CCO3)ccc1OCCn1c(=O)ccn(C)c1=O (configuration not stated) | 3000 (≈ 1650 µg/mL) | 5 to 7 | 
COc1cc(CN(C2CCC2)C(CC(=O)O)c2ccc(Cl)cc2)ccc1OCCn1c(=O)ccn(C)c1=O (configuration not stated) | 3000 (≈ 1630 µg/mL) | 5 to 7 | 
COc1cc(CN(CC(C)C)C(CC(=O)O)c2ccc(Cl)cc2)ccc1OCCN1C(=O)CCC1=O (configuration not stated) | 3000 (≈ 1550 µg/mL) | 5 to 7 | 
Cc1cc(CN(CC2CC2)C(CC(=O)O)c2ccc(Cl)cc2)ccc1OCCn1c(=O)ccn(C)c1=O (configuration not stated) | 3000 (≈ 1580 µg/mL) | 5 to 7 | 
Cc1cc(CN(C)C(CC(=O)O)c2ccc(Cl)cc2)ccc1OCCn1c(=O)ccn(C)c1=O (configuration not stated) | 3000 (≈ 1460 µg/mL) | 5 to 7 | 
CCCN(Cc1ccc(OCCN2C(=O)CCC2=O)c(C)c1)C(c1ccc(Cl)cc1)C1(C(=O)O)CC1 (configuration not stated) | 3000 (≈ 1540 µg/mL) | 5 to 7 | 
CCCCN(Cc1ccc(OCCN2C(=O)CCC2=O)c(C)c1)C(CC(=O)O)c1ccc(Cl)cc1 (configuration not stated) | 3000 (≈ 1500 µg/mL) | 5 to 7 | 
COc1cc(CN(CC(C)C)[C@@H](CC(=O)O)c2ccc(Cl)cc2)ccc1OCCn1c(=O)ccn(C)c1=O | 3000 (≈ 1630 µg/mL) | 5 to 7 | 
Cc1cc(CN(Cc2ccc(F)cc2)C(CC(=O)O)c2ccc(Cl)cc2)ccc1OCCN1C(=O)CCC1=O.Cl (configuration not stated) | 3000 | 5 to 7 | 
CCCN(Cc1ccc(OCCn2c(=O)ccn(C)c2=O)c(OC)c1)C(CC(=O)O)c1ccc2c(c1)CCO2 (configuration not stated) | 3000 (≈ 1610 µg/mL) | 5 to 7 | 
CCCN(Cc1ccc(OCCN2C(=O)CCC2=O)c(OC)c1)C(c1ccc(Cl)cc1)C(C)C(=O)O (configuration not stated) | 3000 (≈ 1550 µg/mL) | 5 to 7 | 

Structure (SMILES) | solubility [1] [µM] | degraded [2] [%] | bioavailability [3] [%]
COc1cc(CN(CC(C)C)C(CC(=O)O)c2ccc3c(c2)CCO3)ccc1OCCN1C(=O)CCC1=O (configuration not stated) | 3000 (≈ 1570 µg/mL) | 5 to 7 | 
CCCCN(Cc1ccc(OCCn2c(=O)ccn(C)c2=O)c(OC)c1)C(CC(=O)O)c1ccc2c(c1)CCO2 (configuration not stated) | 3000 (≈ 1650 µg/mL) | 5 to 7 | 
CCN(Cc1ccc(OCCn2c(=O)ccn(C)c2=O)c(OC)c1)C(CC(=O)O)c1ccc(Cl)cc1 (configuration not stated) | 3000 (≈ 1550 µg/mL) | 5 to 7 | 
C[C@@H](c1ccc(Cl)cc1)N(Cc1ccc(OCCN2C(=O)CCC2=O)c(C(=O)O)c1)CC1CCCC1 | 3000 (≈ 1540 µg/mL) | 5 to 7 | 
COc1cc(CN(CC(C)C)C(CC(=O)O)c2ccc(Cl)cc2Cl)ccc1OCCN1C(=O)CCC1=O (configuration not stated) | 3000 (≈ 1650 µg/mL) | 5 to 7 | 
Cc1cc(CN(CC(C)C)[C@@H](CC(=O)O)c2ccc(Cl)cc2)ccc1OCCN1C(=O)CCC1=O | 3000 (≈ 1500 µg/mL) | 5 to 7 | 
CCCN(Cc1ccc(OCCN2C(=O)CCC2=O)c(OC)c1)C(CC)c1ccc(Cl)c(C(=O)O)c1 (configuration not stated) | 3000 (≈ 1550 µg/mL) | 5 to 7 | 
CCN(Cc1ccc(OCCn2c(=O)ccn(C)c2=O)c(C)c1)C(CC(=O)O)c1ccc(Cl)cc1 (configuration not stated) | 3000 (≈ 1500 µg/mL) | 5 to 7 | 
CCCN(Cc1ccc(OCCn2c(=O)ccn(C)c2=O)c(C)c1)C(CC(=O)O)c1ccc(Cl)cc1 (configuration not stated) | 3000 (≈ 1540 µg/mL) | 5 to 7 | 
CCCN(Cc1ccc(OCCN2C(=O)CCC2=O)c(OC)c1)C(C(=O)O)c1ccc(Cl)cc1 (configuration not stated) | 3000 (≈ 1470 µg/mL) | 5 to 7 | 
CCCCN(Cc1ccc(OCCn2c(=O)ccn(C)c2=O)c(OC)c1)C(CC(=O)O)c1ccc(Cl)cc1 (configuration not stated) | 3000 (≈ 1630 µg/mL) | 5 to 7 | 
Cc1cc(CN(CCC(F)(F)F)C(CC(=O)O)c2ccc(Cl)cc2)ccc1OCCN1C(=O)CCC1=O (configuration not stated) | 3000 (≈ 1620 µg/mL) | 5 to 7 | 
COc1cc(CN(CC(C)C)C(CC(=O)O)c2ccc(Cl)cc2)ccc1OCCn1c(=O)ccn(C)c1=O (configuration not stated) | 3000 (≈ 1630 µg/mL) | 5 to 7 | 
Cc1cc(CN(CC(C)C)C(CC(=O)O)c2ccc(Cl)cc2)ccc1OCCN1C(=O)CCC1=O (configuration not stated) | 3000 (≈ 1500 µg/mL) | 5 to 7 | 
COc1cc(CN(CC(C)C)[C@H](CC(=O)O)c2ccc(Cl)cc2)ccc1OCCn1c(=O)ccn(C)c1=O | 3000 (≈ 1630 µg/mL) | 5 to 7 | 
COc1cc(CN(CC2CC2)C(CC(=O)O)c2ccc3c(c2)CCO3)ccc1OCCn1c(=O)ccn(C)c1=O (configuration not stated) | 3000 (≈ 1650 µg/mL) | 5 to 7 | 
